Test [1] has as its target T1, human Cystic Fibrosis Transmembrane Conductance Regulator (CFTR) harboring the ΔF508 mutation (Homo sapiens, UniProt P13569, DEL508-508).
T1 construct: expressed in transfected cells; host or cells: H441 carcinoma cell line (G418 selection)
Nature of the test: H441 cell Emax and EC50: HRP-tagged ΔF508-CFTR cell-surface luminescence assay. Type of test: cell-based. The note with it: H441 cells expressing HRP-tagged ΔF508-CFTR, 27° C. for two nights; for EC50: 15-point dose-response; for Emax: NCI-H441, % of maximum VX809 signal. The essentials: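 H441 cells expressing ΔF508-CFTR with HRP fused in extracellular loop 4 (CMV promoter), ~10K cells/well, 15-point dose range 24.5 to 0.001 μM, incubated at 27° C. for two nights. Surface CFTR read by Luminata Forte luminescence; Emax as % of maximum VX809 signal, plus EC50.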

Test [2] addresses T2, CFTR (ΔF508 homozygous CF-HBE cells) (Homo sapiens, UniProt P13569, DEL508-508).
T2 construct: Primary human bronchial epithelial cells from a ΔF508 homozygous CF donor; host or cells: primary CF-HBE cells (ΔF508/ΔF508 donor)
Nature of the test: TECC24 AUC fold over DMSO @10 uM: CFTR-mediated transepithelial chloride transport in primary CF-HBE cells. The test is classed as cell-based. The note with it: 10 μM test agent, 48 hours, forskolin-stimulated IEQ AUC divided by vehicle AUC. The essentials:
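Primary ΔF508-homozygous CF bronchial epithelial cells were exposed to test agent for 48 h at 36.5° C, then VT and TEER were recorded with benzamil (10 μM), forskolin (10 μM) stimulation and CFTR inhibitor-172 (20 μM) at the end. AUC of equivalent Cl- current between forskolin and inhibitor is expressed as fold over DMSO vehicle.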

T1 sequence (P13569 with tags, fused parts or gaps DEL508-508): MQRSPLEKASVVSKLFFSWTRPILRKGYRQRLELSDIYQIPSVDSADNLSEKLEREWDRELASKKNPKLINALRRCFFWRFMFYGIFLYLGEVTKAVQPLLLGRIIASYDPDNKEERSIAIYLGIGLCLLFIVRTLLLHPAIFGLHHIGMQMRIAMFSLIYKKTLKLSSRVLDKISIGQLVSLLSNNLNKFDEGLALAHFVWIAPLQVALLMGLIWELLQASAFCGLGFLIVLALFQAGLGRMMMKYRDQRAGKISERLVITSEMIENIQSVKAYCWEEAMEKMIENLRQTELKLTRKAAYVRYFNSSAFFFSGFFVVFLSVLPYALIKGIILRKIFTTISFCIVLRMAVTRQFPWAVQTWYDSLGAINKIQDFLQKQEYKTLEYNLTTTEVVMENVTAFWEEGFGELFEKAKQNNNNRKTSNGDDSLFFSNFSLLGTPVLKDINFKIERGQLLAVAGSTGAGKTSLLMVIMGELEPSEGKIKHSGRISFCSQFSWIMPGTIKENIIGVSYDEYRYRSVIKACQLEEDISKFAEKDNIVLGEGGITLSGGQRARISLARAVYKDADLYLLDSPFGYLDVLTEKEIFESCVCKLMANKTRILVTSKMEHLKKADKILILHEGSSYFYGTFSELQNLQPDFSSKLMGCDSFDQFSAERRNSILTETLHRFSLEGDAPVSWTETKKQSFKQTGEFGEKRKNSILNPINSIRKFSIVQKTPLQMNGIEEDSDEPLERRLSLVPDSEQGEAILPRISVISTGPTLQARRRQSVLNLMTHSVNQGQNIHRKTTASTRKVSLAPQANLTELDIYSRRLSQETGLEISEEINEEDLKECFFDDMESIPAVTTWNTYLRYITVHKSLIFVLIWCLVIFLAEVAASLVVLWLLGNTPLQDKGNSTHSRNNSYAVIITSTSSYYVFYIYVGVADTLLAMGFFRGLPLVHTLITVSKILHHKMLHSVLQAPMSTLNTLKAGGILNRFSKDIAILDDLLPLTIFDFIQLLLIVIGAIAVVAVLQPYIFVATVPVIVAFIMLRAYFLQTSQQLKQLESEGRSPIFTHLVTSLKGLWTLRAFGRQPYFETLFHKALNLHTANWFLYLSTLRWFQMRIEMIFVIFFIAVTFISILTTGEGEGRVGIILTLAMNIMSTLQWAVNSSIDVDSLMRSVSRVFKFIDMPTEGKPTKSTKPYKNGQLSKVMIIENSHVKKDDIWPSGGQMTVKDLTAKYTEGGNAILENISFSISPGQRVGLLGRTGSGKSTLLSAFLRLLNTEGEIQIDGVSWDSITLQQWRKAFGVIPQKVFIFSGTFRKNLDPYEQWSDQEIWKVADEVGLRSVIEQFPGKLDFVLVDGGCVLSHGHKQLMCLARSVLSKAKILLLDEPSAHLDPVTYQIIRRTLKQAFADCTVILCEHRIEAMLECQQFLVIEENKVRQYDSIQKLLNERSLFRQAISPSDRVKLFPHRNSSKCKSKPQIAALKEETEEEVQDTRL
T2 sequence (P13569 with tags, fused parts or gaps DEL508-508): as above

In the case of `CCC(C)(C)[C@H](NC(=O)c1ccc2sc(C)cc2c1OCc1ccc(C(F)(F)F)cc1)C(=O)O` [Compound 33-24, (2S)-3,3-dimethyl-2-(2-methyl-4-((4-(trifluoromethyl)benzyl)oxy)-benzo[b]thiophene-5-carboxamido)pentanoic acid], in test [1], the concentration giving a half-maximal response (EC50) was determined as 412 nM and the Emax came out at 270%. Moreover, the “TECC24 AUC fold over DMSO” value in test [2] is reported as “A (“A” refers to AUC @10 μM > 6)”.
Turning to `CCC(C)(C)[C@H](NC(=O)c1ccc2sc(C(F)(F)F)cc2c1OCc1ccc(C(F)(F)F)cc1)C(=O)O` [Compound 33-25, (2S)-3,3-dimethyl-2-(2-(trifluoromethyl)-4-((4-(trifluoromethyl)benzyl)oxy)-benzo[b]thiophene-5-carboxamido)pentanoic acid], in test [1], the EC50 is 577 nM and the maximal effect (Emax) was 200%. Besides, in test [2], the “TECC24 AUC fold over DMSO” value is “A (“A” refers to AUC @10 μM > 6)”.
In test [1], `CCc1cc2ccc(C(=O)N[C@H](C(=O)O)C(C)(C)C)c(OCc3ccc(OC(F)(F)F)cc3)c2s1` [Compound 33-26, (2S)-2-(2-ethyl-7-((4-(trifluoromethoxy)benzyl)oxy)-benzo[b]thiophene-6-carboxamido)-3,3-dimethylbutanoic acid] displayed an EC50 of 1090 nM and an Emax of 197%. The “TECC24 AUC fold over DMSO” value in test [2] is listed as “B (“B” refers to AUC @10 μM between 4-6)”.
In test [1], `CCc1cc2c(OCc3ccc(C(F)(F)F)cc3)c(C(=O)N[C@H](C(=O)O)C(C)(C)CC)ccc2s1` [Compound 33-27, (2S)-2-(2-ethyl-4-((4-(trifluoromethyl)benzyl)oxy)-benzo[b]thiophene-5-carboxamido)-3,3-dimethylpentanoic acid] returned an EC50 of 309 nM and an Emax of 262%. Also, the “TECC24 AUC fold over DMSO” value in test [2] is “A (“A” refers to AUC @10 μM > 6)”.
The matching figures for `CCC(C)(C)[C@H](NC(=O)c1ccc2cc(C(F)(F)F)sc2c1OCc1ccc(C(F)(F)F)cc1)C(=O)O` [Compound 33-28, (2S)-3,3-dimethyl-2-(2-(trifluoromethyl)-7-((4-(trifluoromethyl)benzyl)oxy)-[b]thiophene-6-carboxamido)pentanoic acid]: 562 nM, 130% and “A (“A” refers to AUC @10 μM > 6)”.
In test [1], `CCC(C)(C)[C@H](NC(=O)c1ccc2cc(C(F)(F)F)sc2c1OCc1ccc(OC(F)(F)F)cc1)C(=O)O` [Compound 33-29, (2S)-3,3-dimethyl-2-(7-((4-(trifluoromethoxy)benzyl)oxy)-2-(trifluoromethyl)-benzo[b]thiophene-6-carboxamido)pentanoic acid] registered an EC50 of 854 nM and a maximal effect (Emax) of 152%. In addition, the “TECC24 AUC fold over DMSO” value in test [2] is given as “B (“B” refers to AUC @10 μM between 4-6)”.
On the same counts, the results for `CCC(C)(C)[C@H](NC(=O)c1ccc2sc(C)cc2c1OCc1ccc(OC(F)(F)F)cc1)C(=O)O` [Compound 33-30, (2S)-3,3-dimethyl-2-(2-methyl-4-((4-(trifluoromethoxy)benzyl)oxy)-benzo[b]thiophene-5-carboxamido)pentanoic acid] are 102 nM, 263% and “A (“A” refers to AUC @10 μM > 6)”.
Take `CC(C)c1cc2ccc(C(=O)N[C@H](C(=O)O)C(C)(C)C)c(OCc3ccc(C(F)(F)F)cc3)c2s1` [Compound 33-31, (2S)-2-(2-isopropyl-7-((4-(trifluoromethyl)benzyl)oxy)-benzo[b]thiophene-6-carboxamido)-3,3-dimethylbutanoic acid]: in test [1], the EC50 amounted to 532 nM and the maximum response (Emax) was found to be 131%. For the same molecule, in test [2], the “TECC24 AUC fold over DMSO” value is on record as “C (“C” refers to AUC @10 μM < 4)”.
The matching figures for `CCC(C)(C)[C@H](NC(=O)c1ccc2cc(CCC(C)C)sc2c1OCc1ccc(C(F)(F)F)cc1)C(=O)O` [Compound 33-32, (2S)-2-(2-isopentyl-7-((4-(trifluoromethyl)benzyl)oxy)-benzo[b]thiophene-6-carboxamido)-3,3-dimethylpentanoic acid]: 277 nM, 168% and “B (“B” refers to AUC @10 μM between 4-6)”.
